Where “and” joins values, the source holds several entries; their conditions need not be identical. Equal entries are not always repeated. Inconclusive results are not listed.
System: BDF1 mice, s.c. Lewis lung carcinoma, T/C %
Test: NCI In Vivo Anticancer Drug Screen. Data for tumor model Lewis Lung Carcinoma (subcutaneous) in B6D2F1 (BDF1) mice
Procedure, shortened: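 Readout: survival or tumor size, expressed as treated (T) over vehicle control (C). Transplantable tumor implanted in mice; compound given to the treated group.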

[1] = endpoint: median survival time, dose: 0.5 mg/kg/injection, schedule: Q01DX009 (ip), vehicle: saline, higher = longer survival
[2] = endpoint: median survival time, dose: 1.0 mg/kg/injection, schedule: Q01DX009 (ip), vehicle: saline, higher = longer survival
[3] = endpoint: mean tumor weight, dose: 12.5 mg/kg/injection, schedule: Q01DX011 (ip), vehicle: saline, higher = larger tumour
[4] = endpoint: mean tumor weight, dose: 25.0 mg/kg/injection, schedule: Q01DX011 (ip), vehicle: saline, higher = larger tumour
[5] = endpoint: mean tumor weight, dose: 50.0 mg/kg/injection, schedule: Q01DX011 (ip), vehicle: saline, higher = larger tumour
[6] = endpoint: median survival time, dose: 3.12 mg/kg/injection, schedule: Q01DX009 (ip), vehicle: Klucel (hydroxypropylcellulose) (HPC), higher = longer survival
[7] = endpoint: median survival time, dose: 6.25 mg/kg/injection, schedule: Q01DX009 (ip), vehicle: Klucel (hydroxypropylcellulose) (HPC), higher = longer survival
[8] = endpoint: median survival time, dose: 12.5 mg/kg/injection, schedule: Q01DX009 (ip), vehicle: Klucel (hydroxypropylcellulose) (HPC), higher = longer survival
[9] = endpoint: median survival time, dose: 25.0 mg/kg/injection, schedule: Q01DX009 (ip), vehicle: Klucel (hydroxypropylcellulose) (HPC), higher = longer survival
[10] = endpoint: median survival time, dose: 40.0 mg/kg/injection, schedule: Q01DX009 (ip), vehicle: saline, higher = longer survival
[11] = endpoint: median survival time, dose: 80.0 mg/kg/injection, schedule: Q01DX009 (ip), vehicle: saline, higher = longer survival

Oc1ccc2ccccc2c1N=Nc1ccccc1
T/C (endpoint: mean tumor weight, dose: 25.0 mg/kg/injection, schedule: Q01DX011 (ip), vehicle: carboxymethylcellulose (CMC), higher = larger tumour): 78 % of control
T/C (endpoint: mean tumor weight, dose: 50.0 mg/kg/injection, schedule: Q01DX011 (ip), vehicle: carboxymethylcellulose (CMC), higher = larger tumour): 75 % of control
T/C (endpoint: mean tumor weight, dose: 100.0 mg/kg/injection, schedule: Q01DX011 (ip), vehicle: carboxymethylcellulose (CMC), higher = larger tumour): 84 % of control
T/C (endpoint: mean tumor weight, dose: 200.0 mg/kg/injection, schedule: Q01DX011 (ip), vehicle: carboxymethylcellulose (CMC), higher = larger tumour): 43 % of control

C(/C=C/C=C/N1CCCCC1)=[N+]1CCCCC1
T/C (endpoint: median survival time, dose: 0.13 mg/kg/injection, schedule: Q01DX009 (ip), vehicle: saline, higher = longer survival): 101 % of control
T/C (endpoint: median survival time, dose: 0.25 mg/kg/injection, schedule: Q01DX009 (ip), vehicle: saline, higher = longer survival): 110 % of control
T/C [1]: 117 % of control
T/C [2]: 110 % of control

Nc1ncnc2c(C3OC(CO)C(O)C3O)[nH]nc12 (configuration not stated)
T/C (endpoint: mean tumor weight, dose: 10.5 mg/kg/injection, schedule: Q01DX011 (ip), vehicle: carboxymethylcellulose (CMC), higher = larger tumour): 66 % of control

O=C(O)CC(O)(CC(=O)O)C(=O)O.[Ga]
T/C [3]: 57 % of control
T/C [4]: 50 % of control
T/C [5]: 34 % of control

CC1(C)[C@@H]2CC[C@]1(C)[C@H](O)C2
T/C [5]: 100 % of control
T/C (endpoint: mean tumor weight, dose: 100.0 mg/kg/injection, schedule: Q01DX011 (ip), vehicle: saline, higher = larger tumour): 95 % of control
T/C (endpoint: mean tumor weight, dose: 200.0 mg/kg/injection, schedule: Q01DX011 (ip), vehicle: saline, higher = larger tumour): 79 % of control
T/C (endpoint: mean tumor weight, dose: 400.0 mg/kg/injection, schedule: Q01DX011 (ip), vehicle: saline, higher = larger tumour): 100 % of control

C=C1C(=O)OC2C3OC(C)(CCC(O)C3COC(C)=O)CC(OC(=O)/C(=C/C)COC(C)=O)C12 (configuration not stated)
T/C [6]: 107 % of control
T/C (endpoint: median survival time, dose: 3.13 mg/kg/injection, schedule: Q01DX009 (ip), vehicle: Klucel (hydroxypropylcellulose) (HPC), higher = longer survival): 101 % of control
T/C [7]: 101 % of control
T/C [8]: 114 % of control
T/C [9]: 106 % of control

c1ccc([B-]2([C+]3CCCCC3)N3CCCCC3C3CCCCN32)cc1 (configuration not stated)
T/C [8]: 89 % of control
T/C [9]: 106 % of control

CN(CCC(=O)c1ccccc1)CCC(=O)c1ccccc1
T/C (endpoint: mean tumor weight, dose: 55.0 mg/kg/injection, schedule: Q01DX011 (ip), vehicle: other, higher = larger tumour): 91 % of control
T/C (endpoint: mean tumor weight, dose: 83.0 mg/kg/injection, schedule: Q01DX011 (ip), vehicle: other, higher = larger tumour): 122 % of control

CCN=C=NCCCN(C)C
T/C (endpoint: median survival time, dose: 10.0 mg/kg/injection, schedule: Q01DX009 (ip), vehicle: saline, higher = longer survival): 106 % of control
T/C (endpoint: median survival time, dose: 20.0 mg/kg/injection, schedule: Q01DX009 (ip), vehicle: saline, higher = longer survival): 107 % of control
T/C [10]: 93 % of control
T/C [11]: 96 % of control

Oc1cc2c3c(c1)c1cc4c(cc1c[n+]3CC2)OCO4
T/C (endpoint: median survival time, dose: 3.13 mg/kg/injection, schedule: Q01DX009 (ip), vehicle: water, higher = longer survival): 109 % of control
T/C (endpoint: median survival time, dose: 6.25 mg/kg/injection, schedule: Q01DX009 (ip), vehicle: water, higher = longer survival): 96 % of control
T/C (endpoint: median survival time, dose: 12.5 mg/kg/injection, schedule: Q01DX009 (ip), vehicle: water, higher = longer survival): 122 % of control
T/C (endpoint: median survival time, dose: 25.0 mg/kg/injection, schedule: Q01DX009 (ip), vehicle: water, higher = longer survival): 96 % of control

O=C(Nc1ccc(C2=NCCCN2)cc1)c1ccc(C(=O)Nc2ccc(C3=NCCCN3)cc2)cc1
T/C (endpoint: mean tumor weight, dose: 0.25 mg/kg/injection, schedule: Q01DX011 (ip), vehicle: other, higher = larger tumour): 73 % of control
T/C (endpoint: mean tumor weight, dose: 0.5 mg/kg/injection, schedule: Q01DX011 (ip), vehicle: other, higher = larger tumour): 98 % of control
T/C (endpoint: mean tumor weight, dose: 1.0 mg/kg/injection, schedule: Q01DX011 (ip), vehicle: other, higher = larger tumour): 85 % of control
T/C (endpoint: mean tumor weight, dose: 2.0 mg/kg/injection, schedule: Q01DX011 (ip), vehicle: other, higher = larger tumour): 73 % of control
T/C (endpoint: mean tumor weight, dose: 4.0 mg/kg/injection, schedule: Q01DX011 (ip), vehicle: other, higher = larger tumour): 7 % of control

Cc1ccc2c(Nc3ccc(NS(C)(=O)=O)cc3)c3ccccc3nc2c1C
T/C (endpoint: median survival time, dose: 10.0 mg/kg/injection, schedule: Q01DX009 (ip), vehicle: other, higher = longer survival): 98 % of control
T/C (endpoint: median survival time, dose: 40.0 mg/kg/injection, schedule: Q01DX009 (ip), vehicle: other, higher = longer survival): 124 % of control

OC(CCl)CN1CC[N+]2(CC1)CC[N+]1(CCN(CC(O)CCl)CC1)CC2 (configuration not stated)
T/C [10]: 107 % of control and 112 % of control
T/C [11]: 114 % of control and 121 % of control
T/C (endpoint: median survival time, dose: 160.0 mg/kg/injection, schedule: Q01DX009 (ip), vehicle: saline, higher = longer survival): 120 % of control
T/C (endpoint: median survival time, dose: 320.0 mg/kg/injection, schedule: Q01DX009 (ip), vehicle: saline, higher = longer survival): 150 % of control and 157 % of control

C[C@@H](N)[C@@H](O)c1ccccc1
T/C (endpoint: mean tumor weight, dose: 3.13 mg/kg/injection, schedule: Q01DX011 (ip), vehicle: saline, higher = larger tumour): 91 % of control
T/C (endpoint: mean tumor weight, dose: 6.25 mg/kg/injection, schedule: Q01DX011 (ip), vehicle: saline, higher = larger tumour): 67 % of control
T/C [3]: 45 % of control

CC(=O)N(C)C(C(=O)N1CC(C)CC1C(=O)N(C)C1C(=O)NC(CC(C)C)C(=O)N2CC(C)CC2C(=O)NC(CC(C)C)C(=O)N(C)C(C(C)C)C(=O)N2CCCC2C(=O)N(C)C(CC(C)C)C(=O)NCC(=O)OC1C)C(C)C (configuration not stated)
T/C (endpoint: median survival time, dose: 9.4 mg/kg/injection, schedule: Q01DX009 (ip), vehicle: Klucel (hydroxypropylcellulose) (HPC), higher = longer survival): 94 % of control
T/C (endpoint: median survival time, dose: 18.75 mg/kg/injection, schedule: Q01DX009 (ip), vehicle: Klucel (hydroxypropylcellulose) (HPC), higher = longer survival): 98 % of control
T/C (endpoint: median survival time, dose: 37.5 mg/kg/injection, schedule: Q01DX009 (ip), vehicle: Klucel (hydroxypropylcellulose) (HPC), higher = longer survival): 96 % of control

O=P(c1ccccc1)(N1CC1)N1CC1
T/C (endpoint: mean tumor weight, dose: 11.0 mg/kg/injection, schedule: Q01DX011 (ip), vehicle: saline, higher = larger tumour): 65 % of control
T/C (endpoint: mean tumor weight, dose: 17.0 mg/kg/injection, schedule: Q01DX011 (ip), vehicle: saline, higher = larger tumour): 93 % of control
T/C [4]: 69 % of control
T/C (endpoint: mean tumor weight, dose: 38.0 mg/kg/injection, schedule: Q01DX011 (ip), vehicle: saline, higher = larger tumour): 38 % of control
T/C (endpoint: mean tumor weight, dose: 76.0 mg/kg/injection, schedule: Q01DX011 (ip), vehicle: saline, higher = larger tumour): 52 % of control

CC/C(=C(/CC)c1ccc(O)cc1)c1ccc(O)cc1
T/C (endpoint: mean tumor weight, dose: 12.5 mg/kg/injection, schedule: Q01DX011 (sc), vehicle: steriod suspending solution, higher = larger tumour): 38 % of control
T/C (endpoint: mean tumor weight, dose: 25.0 mg/kg/injection, schedule: Q01DX011 (sc), vehicle: steriod suspending solution, higher = larger tumour): 28 % of control
T/C (endpoint: mean tumor weight, dose: 50.0 mg/kg/injection, schedule: Q01DX011 (sc), vehicle: steriod suspending solution, higher = larger tumour): 17 % of control
T/C (endpoint: mean tumor weight, dose: 100.0 mg/kg/injection, schedule: Q01DX011 (sc), vehicle: steriod suspending solution, higher = larger tumour): 21 % of control
T/C [9]: 120 % of control
T/C (endpoint: median survival time, dose: 50.0 mg/kg/injection, schedule: Q01DX009 (ip), vehicle: Klucel (hydroxypropylcellulose) (HPC), higher = longer survival): 106 % of control
T/C (endpoint: median survival time, dose: 100.0 mg/kg/injection, schedule: Q01DX009 (ip), vehicle: Klucel (hydroxypropylcellulose) (HPC), higher = longer survival): 113 % of control
T/C (endpoint: median survival time, dose: 200.0 mg/kg/injection, schedule: Q01DX009 (ip), vehicle: Klucel (hydroxypropylcellulose) (HPC), higher = longer survival): 124 % of control

O=C(/C(=C\c1ccccc1)CN1CCOCC1)c1ccc(Br)cc1
T/C (endpoint: median survival time, dose: 50.0 mg/kg/injection, schedule: Q01DX009 (ip), vehicle: saline, higher = longer survival): 113 % of control
T/C (endpoint: median survival time, dose: 100.0 mg/kg/injection, schedule: Q01DX009 (ip), vehicle: saline, higher = longer survival): 105 % of control

CC(C)CCCCCCCCCCCCC(=O)NCC(=O)NC1C(O)C(O)C(Nc2ncnc3nc[nH]c23)OC1C(O)CO (configuration not stated)
T/C (endpoint: mean tumor weight, dose: 0.25 mg/kg/injection, schedule: Q01DX011 (ip), vehicle: saline, higher = larger tumour): 69 % of control
T/C (endpoint: mean tumor weight, dose: 0.5 mg/kg/injection, schedule: Q01DX011 (ip), vehicle: saline, higher = larger tumour): 54 % of control
T/C (endpoint: mean tumor weight, dose: 1.0 mg/kg/injection, schedule: Q01DX011 (ip), vehicle: saline, higher = larger tumour): 100 % of control

CC(C)n1c2c([n+](C)c1/C=C/c1ccccc1)C(=O)c1ccccc1C2=O
T/C [1]: 96 % of control
T/C [2]: 110 % of control

COc1ccc(NC(=O)N(CCCl)N=O)cc1OC
T/C (endpoint: median survival time, dose: 1.56 mg/kg/injection, schedule: Q01DX009 (ip), vehicle: Klucel (hydroxypropylcellulose) (HPC), higher = longer survival): 97 % of control
T/C [6]: 100 % of control
T/C [7]: 106 % of control
T/C [8]: 101 % of control
T/C [9]: 107 % of control

CC1CN1P(=S)(N1CC1C)N1CC1C (configuration not stated)
T/C (endpoint: mean tumor weight, dose: 9.0 mg/kg/injection, schedule: Q01DX011 (ip), vehicle: carboxymethylcellulose (CMC), higher = larger tumour): 87 % of control
T/C (endpoint: mean tumor weight, dose: 17.5 mg/kg/injection, schedule: Q01DX011 (ip), vehicle: carboxymethylcellulose (CMC), higher = larger tumour): 72 % of control
T/C (endpoint: mean tumor weight, dose: 53.0 mg/kg/injection, schedule: Q01DX011 (ip), vehicle: carboxymethylcellulose (CMC), higher = larger tumour): 23 % of control

CN(C)CCCN1c2ccccc2Sc2ccc(C(F)(F)F)cc21
T/C (endpoint: mean tumor weight, dose: 12.0 mg/kg/injection, schedule: Q01DX011 (ip), vehicle: saline, higher = larger tumour): 81 % of control
T/C [4]: 44 % of control

O=[N+]([O-])c1ccc([I+]c2ccccc2)cc1
T/C [8]: 91 % of control
T/C [9]: 95 % of control

Source: PubChem BioAssay AID270 (DTP/NCI, 2004)
